A short description of the series: solvent given as SMILES.

“And” between values parts separate entries of the source, which are not always exact repeats. Equal values may be shown once.

As to `CCCCCCCCCCCCC1(CCCCCCCCCCCC)c2cc(-c3ccc(C=C4C(=O)c5ccccc5C4=O)cc3)ccc2-c2ccc(-c3ccc(C=C4C(=O)c5ccccc5C4=O)cc3)cc21`, the absorption maximum came out at 433 nm (in C1CCOC1); 429 nm (in CC(C)=O); 419 nm (in CCCCCC); 437 nm (in CS(C)=O); 429 nm (in Cc1ccccc1); 438 nm (in ClC(Cl)Cl).

As for `Cc1cc(C)c(B(c2cc(C#Cc3ccccc3)sc2-c2sc(C#Cc3ccccc3)cc2P(=O)(c2ccccc2)c2ccccc2)c2c(C)cc(C)cc2C)c(C)c1`, under “in CO”, the absorption maximum is 400 nm.

On to `Nc1ccc2c(C(F)(F)F)cc(=O)oc2c1`, for which the absorption maximum was 349 nm (in C1CCC2CCCCC2C1); 348 nm (in C1CCCCC1); 364 nm (in C1COCCO1); 348 nm (in CC1CCCCC1); 365 nm and 367 nm (in CC#N); 371 nm (in CC(C)=O). The compound further returned an absorption maximum (in CC(C)O) of 384 nm; an absorption maximum (in CCC(C)CC) of 347 nm; an absorption maximum (in CCCC(C)C) of 347 nm; an absorption maximum (in CCCCCC) of 347 nm; an absorption maximum (in CCCCCCCCO) of 383 nm; an absorption maximum (in CCCCCCO) of 384 nm. Also, the absorption maximum reads like this: (in CCCCO) 383 nm; (in CCO) 383 nm; (in CCOC(C)=O) 368 nm; (in CN(C)C=O) 378 nm; (in CO) 378 nm; (in CS(C)=O) 386 nm.

Compound `CCCCCCc1cc2c(=O)c3cc(CCCCCC)cc4c(=O)c5cc(CCCCCC)cc6c(=O)c(c1)c2n(c34)c65` returned an absorption maximum (in ClCCl) of 424 nm.

Compound `CCCBr` came in with an absorption maximum (in CCCCCC) of 208 nm.

In turn, `CC[n+]1ccc2ccccc2c1/C=C/c1c([O-])ccc2ccc(=O)oc12` had an absorption maximum (in C1CCOC1) of 629.86 nm; an absorption maximum (in CC#N) of 591.03 nm; an absorption maximum (in CC(C)=O) of 603.44 nm; an absorption maximum (in CO) of 535.64 nm; an absorption maximum (in CS(C)=O) of 593.42 nm; an absorption maximum (in Cc1ccccc1) of 655.01 nm. The absorption maximum is recorded as 614.58 nm (in ClC(Cl)Cl), 614.58 nm (in ClCCl) and 491.71 nm (in O).

Where the note is “in ClCCl”, `O=C(c1ccc2c3c(cccc13)-c1cccc3c1C2CC=C3)c1c(CCc2ccccc2)c2ccc3cccc4c5cccc6ccc1c(c65)c2c34` (stereo unspecified) had an absorption maximum of 470 nm.

`O=c1c2ccccc2n(-c2ccc(-c3ccc(-n4c5ccccc5c5ccccc54)cc3)cc2)c2ccccc12` showed an absorption maximum (in ClCCl) of 394 nm.

Consider `CCn1c(-c2ccc(-c3ccc(-c4ccc(-c5n(CC)c6ccccc6[n+]5CC)cc4)c(C)c3)cc2)[n+](CC)c2ccccc21`, for which the absorption maximum (in O) turned out to be 290 nm.

The compound `CCCCCCCCCCCCOc1cc2c3c(ccc4c5c(NC6CCCCC6)cc6c7c(ccc(c1c34)c75)C(=O)N(C1CCCCC1)C6=O)C(=O)N(C1CCCCC1)C2=O` came in with an absorption maximum (in ClC(Cl)Cl) of 640 nm.

In turn, `CCn1c2ccccc2c2ccc(C#N)cc21` registered an absorption maximum (in C1CCCCC1) of 366 nm.

Take `CC(C)(C)c1ccc2c(c1)c1cc(C(C)(C)C)ccc1n2-c1ccc(-c2nc(-c3ccc(P(=O)(c4ccccc4)c4ccccc4)cc3)nc(-c3ccc(P(=O)(c4ccccc4)c4ccccc4)cc3)n2)cc1`: the absorption maximum (in C1CCOC1) worked out at 364.73 nm; the absorption maximum (in CC#N) was 361.43 nm; the absorption maximum (in CC(C)=O) worked out at 366.18 nm; the absorption maximum (in CN(C)C=O) was 365.92 nm; the absorption maximum (in Cc1ccccc1) was 375.96 nm; the absorption maximum (in ClC(Cl)Cl) came out at 435.78 nm. For the same compound, where the note is “in ClCCl”, the absorption maximum was found to be 375.3 nm.

In the case of `COc1ccc(-c2nc3ccccc3oc2=O)cc1`, the absorption maximum (in c1ccccc1) amounted to 372 nm.

Under “in ClCCl”, `COc1ccc2cc(C3=[N+]4C(=Nc5c(-c6ccc7ccccc7c6)c(Br)c(-c6ccc7cc(OC)ccc7c6)n5[B-]4(F)F)C(c4ccc5ccccc5c4)=C3Br)ccc2c1` registered an absorption maximum of 698 nm.

As for `CC1(C)c2ccccc2N(c2ccc(-c3cc(-c4ccccc4)nc(-c4ccccc4)n3)cc2)c2ccccc21`, the absorption maximum (in Cc1ccccc1) was determined as 374.95 nm.

With `CCCCCCn1c2c(c3cc(-c4ccc5ccc6cccc7ccc4c5c67)ccc31)-c1c(c3cc(-c4ccc5ccc6cccc7ccc4c5c67)ccc3n1CCCCCC)-c1c(c3cc(-c4ccc5ccc6cccc7ccc4c5c67)ccc3n1CCCCCC)-c1c-2c2cc(-c3ccc4ccc5cccc6ccc3c4c56)ccc2n1CCCCCC`, the absorption maximum (in ClCCl) is reported as 340 nm.

For `CC1(C)c2ccccc2N(c2ccc3c(ccc4nc5ccc6cc(N7c8ccccc8C(C)(C)c8ccccc87)ccc6c5nc43)c2)c2ccccc21`, the absorption maximum by setting is: (in C1CCCCC1) 413 nm; (in C1CCOC1) 416 nm; (in CN(C)C=O) 418 nm; (in Cc1ccccc1) 416 nm; (in ClCCl) 416 nm.

`N#Cc1ccc(-c2nc(-c3ccccc3)c(-c3ccccc3)[nH]2)cc1`: the absorption maximum (in CO) amounted to 339 nm.

`C[Si](C)(C)c1sc([Si](C)(C)C)c2c1sc1c2sc2sc3sc4c(sc5c([Si](C)(C)C)sc([Si](C)(C)C)c54)c3c21` came in with an absorption maximum (in ClC(Cl)Cl) of 332 nm.

Regarding `COc1ccc2c(c1)[n+]([O-])nc(N)[n+]2[O-]`, the absorption maximum was determined as 432 nm (in CC#N) and 440 nm (in O).

Turning to `CN(C)c1ccc(C2=CC3=C(c4ccc(C#N)cc4)[C@H]4c5ccccc5[C@]3(S2)c2ccccc24)cc1`, the absorption maximum (in ClCCl) worked out at 436 nm.

`COCCOCCOCCOCC(COCCOCCOCCOC)Oc1cc(/C=C/c2ccc(/C=C(\C#N)C(=O)c3ccccc3)cc2)c(OC(COCCOCCOCCOC)COCCOCCOCCOC)cc1/C=C/c1ccc(/C=C(\C#N)C(=O)c2ccccc2)cc1` displayed an absorption maximum (in ClCCl) of 461 nm.

The compound `COc1ccc2c(-c3nc(-c4cccc(Br)c4)no3)cc(=O)oc2c1` gave an absorption maximum (in CCO) of 259 nm and an absorption maximum (in ClC(Cl)Cl) of 360 nm.

As to `CN(C)CCN(Cc1c2ccccc2c(CN(CCN(C)C)c2ccc([N+](=O)[O-])cc2[N+](=O)[O-])c2ccccc12)c1ccc([N+](=O)[O-])cc1[N+](=O)[O-]`, the absorption maximum is, setting by setting: (in C1CCCCC1) 340 nm; (in C1CCOC1) 351 nm; (in CC#N) 347 nm; (in CC(C)=O) 352 nm; (in CCO) 341 nm; (in CN(C)C=O) 340 nm. The absorption maximum is listed as 341 nm (in CO) and 342 nm (in ClC(Cl)Cl).

Compound `CCCC1=Cc2nc1ccc1[nH]c(cc1CCC)c1nc(c(OC)cc3[nH]c2cc3CCC)C(CCC)=C1` came in with an absorption maximum (in Cc1ccccc1) of 682 nm.

In the case of `OC1(c2ccc(-c3cccs3)s2)CCCC1`, the absorption maximum runs as follows: (in C1CCOC1) 344 nm; (in CC#N) 343 nm; (in CCCCCC) 341 nm; (in CCO) 342 nm; (in OCCOCCO) 347 nm; (in c1ccncc1) 348 nm.

Consider `COc1cccc(/C=C/C(=O)c2c(O)cc(C)oc2=O)c1`, for which the absorption maximum (in CC#N) was found to be 373 nm and the absorption maximum (in ClCCl) is given as 377 nm.

For the compound `O=C1c2ccccc2-c2c(-c3cc(Br)ccc3O)[nH]c(=O)n21`, the absorption maximum reads like this: (in CC#N) 390 nm; (in CO) 400 nm; (in ClCCl) 396 nm.

Regarding `CCCC1=CC2=C(c3c(C)cc(C)cc3C)c3cc(CCC)c(-c4ccc5ccc6cccc7ccc4c5c67)n3[B-](F)(F)[N+]2=C1c1ccc2ccc3cccc4ccc1c2c34`, where the note is “in ClC(Cl)Cl”, the absorption maximum was determined as 562 nm.

On to `COc1ccc(-n2nc(C(=O)N3CCCC3)c(N3CCCC3)n2)cc1`, for which the absorption maximum is given as 328 nm (in CC#N); 332 nm (in CCCCCC); 328 nm (in CCO); 334 nm (in CN(C)C=O); 331 nm (in ClC(Cl)Cl).

With `COc1ccc(-c2c3nc(cc4ccc([nH]4)c(-c4ccc(OC)c(OCCCC(=O)O)c4)c4nc(cc5ccc2[nH]5)CC4)CC3)cc1OCCCC(=O)O`, the absorption maximum (in CS(C)=O) is reported as 736 nm.

In turn, `COc1ccc(/C2=C3N=C(C(c4ccccc4)=C/3c3ccccc3)/C(c3ccc(OC)cc3)=c3\[nH]/c(c(-c4ccccc4)c3-c3ccccc3)=C(/c3ccc(OC)cc3)C3=N/C(=C(/c4ccc(OC)cc4)c4[nH]c2c(-c2ccccc2)c4-c2ccccc2)C(c2ccccc2)=C3c2ccccc2)cc1` displayed an absorption maximum (in ClCCl) of 731 nm.

On to `CC(C)(C)c1ccc2oc3nc4oc5cc(-n6c7ccccc7c7ccccc76)ccc5c4cc3c2c1`, for which the absorption maximum (in ClC(Cl)Cl) was determined as 347 nm.

Take `CN(C)c1cc(-c2ccccc2)cc2ccccc12`: the absorption maximum (in ClCCl) is recorded as 318 nm.

As for `Nc1ccc(N2C(=O)c3ccc4c5ccc6c7c(ccc(c8ccc(c3c48)C2=O)c75)C(=O)N(c2ccc(N)cc2)C6=O)cc1`, the absorption maximum (in CN(C)C=O) came to 537 nm.

Compound `CCOCCOCCOC(=O)/C=C/C1=CC2=C(c3c(C)cc(C)cc3C)c3cccn3[B-](F)(F)[N+]2=C1` had an absorption maximum (in ClCCl) of 536 nm.

Turning to `COc1ccc(C(=O)/C=C2\C(=O)Nc3ccccc32)c(OC)c1`, the absorption maximum runs as follows: (in C1CCCCC1) 334 nm; (in C1COCCO1) 336 nm; (in CC#N) 328 nm; (in CC(C)(C)O) 338 nm; (in CC(C)O) 338 nm; (in CCCCCC) 333 nm. In addition, the absorption maximum is, setting by setting: (in CCCCO) 340 nm; (in CCOC(C)=O) 334 nm; (in CN(C)C=O) 338 nm; (in CO) 343 nm; (in ClCCl) 331 nm; (in O) 330 nm.

With `CCOC(=O)CSc1nc(-c2ccc(OC)cc2)c(C)c(C#N)c1C#N`, the absorption maximum (in c1ccccc1) is 374 nm.

On to `COc1ccc(C2=C(c3ccc(OC)cc3)c3cccc4c5c(cc(c34)O2)=NC(C#N)C(C#N)N=5)cc1` (stereo unspecified), for which, for the setting “in ClCCl”, the absorption maximum was determined as 511 nm.
